Data on 10 compounds can be found in paper PMC12196251, “Synthesis of New DltA Inhibitors and Their Application as Adjuvant Antibiotics to Re-Sensitize Methicillin-Resistant Staphylococcus aureus” (Molecules, 2025).

Values joined by “and” are separate entries in the source; they are usually repeats but may differ in a detail not shown here. Equal entries are not always repeated. Structures can show the parent of a compound that is named as a salt. Where two headings read alike, the source gives them in different places. Bounds are passed on as bounds.

Test [1] deals with T1, recombinant DltA from E. faecalis (Enterococcus faecalis, UniProt Q830N0).
T1 construct: made in house; host or cells: E. coli
T1 sequence (Q830N0 1-506): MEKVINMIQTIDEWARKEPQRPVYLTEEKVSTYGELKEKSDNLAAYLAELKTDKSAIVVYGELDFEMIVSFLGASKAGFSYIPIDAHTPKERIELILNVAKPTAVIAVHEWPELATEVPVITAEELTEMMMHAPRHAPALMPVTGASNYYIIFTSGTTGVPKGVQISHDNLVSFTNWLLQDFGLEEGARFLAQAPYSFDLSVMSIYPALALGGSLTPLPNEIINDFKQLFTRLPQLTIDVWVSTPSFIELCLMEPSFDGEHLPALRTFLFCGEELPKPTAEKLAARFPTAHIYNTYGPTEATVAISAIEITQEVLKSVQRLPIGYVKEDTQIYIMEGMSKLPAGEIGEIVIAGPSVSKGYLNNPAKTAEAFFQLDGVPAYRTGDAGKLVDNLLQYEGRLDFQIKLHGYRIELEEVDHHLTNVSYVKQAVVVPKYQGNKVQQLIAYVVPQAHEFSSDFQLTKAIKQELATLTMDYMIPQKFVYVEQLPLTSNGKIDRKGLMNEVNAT
Kind of test: DltA enzyme inhibition, PPi release coupled-enzyme assay. It is filed as biochemical. The procedure: (§1) All new compounds were then evaluated in vitro for enzyme inhibition against recombinant DltA from E. faecalis or S. epidermis. Half-maximal inhibitory concentrations (IC50) were then determined by measuring the amount of PPi released at different inhibitor concentrations (Table 2). […] We noticed the DltA enzyme tolerated the presence of various modifications on the 2′-position, but the activity was inversely related to the size of the introduced group. […] Despite a good predicted binding affinity (−8.7 Kcal/mol), we hypothesize that the lower activity could be explained by the fact that the squaramide nitrogen atom might not be under its anionic form, as is the case with sulfamate 1.
(§2) The DltA-catalyzed ATP-hydrolysis reaction was monitored in vitro via PPi release (DltA +D-alanine +ATP → DltA-DAla-AMP +PPi) using a coupled-enzyme assay. The purified DltA was pretreated with DltC purified from E. coli to clear D-Ala-AMP already present in the enzyme preparation after expression in E. coli. Holo-DltC is the natural protein partner of DltA, and DltC purified from E. coli BL21 (DE3) contained 51% of this active form of DltC as determined by HPLC analysis. DltA was pretreated with DltC (ratio 1:1.2), incubated for 30 min at 37 °C and 30 min at 4 °C. Three successive washes were realized on Amicon Ultra-2 Centrifugal Filter Unit—Ultracel 30 membrane 30 kDa MWCO (Merck, Darmstadt, Germany) with elution buffer EB at 4 °C. The components of the coupled enzyme assay included 1.5 μM pre-treated DltA, 20 μM of ATP, and 14 μM of D-alanine. The half-maximal inhibitory concentration (IC50) of potential DltA inhibitors was determined by the addition of different concentrations of the synthesized molecules. PPi release was determined using the PiPer—Pyrophosphate assay kit (Invitrogen, Waltham, MA, USA) according to the recommendation of the supplier. Reactions were carried out in 96-well Chimney Style, non-binding Microplates with μClear Film Bottom (Greiner Bio-one, Frickenhausen, Germany). Plates were incubated at 37 °C for 5 h and read in a FlexStation 3 Multi-Mode plate reader (Molecular Devices, Silicon Valley, CA, USA), with λ excitation of 530 nm and λ emission of 590 nm. Experiments were conducted in sextuplicate, and the IC50 was determined by linear regression of the curve.

The subject of test [2] is D-alanyl ester of the MRSA cell wall. Kind of test: Quantification of D-alanyl ester in the bacterial cell wall. It counts as cell-based, S. aureus. Conditions: inhibitor at 1 mM, value (spread). The procedure:
(§3) All these compounds were also tested […] against MRSA clinical isolates. […] The minimum inhibitory concentrations (MICs) of imipenem (IPM) were next determined in the absence or presence of 1 mM of the different DltA inhibitors to evaluate their potential to re-sensitize MRSA to this β-lactam (Table 2). […] To clarify this hypothesis, quantification of D-alanyl ester of the MRSA cell wall was performed as previously described in the presence of inhibitors (Table 2). […] These new series represent a promising structure entry not reported yet for the inhibition of DltA and the re-sensitization of bacteria toward known antibiotics.
Ester-linked D-alanines were quantified as described previously, with the following modifications. Cultures were grown in 5 mL of BHI supplemented with DltA inhibitor to a final concentration of 0.05, 0.1, 0.25, 0.5, 0.75, or 1 mM for 16 h at 37 °C under shaking (120 rpm). Briefly, the quantification is based on the oxidation of a chromogen by H2O2 generated when free D-alanines are oxidized by a D-amino acid oxidase. Three independent experiments with duplicate samples were performed.

The next test relates to MRSA clinical isolates. Kind of test: MIC of imipenem against MRSA in absence or presence of DltA inhibitor. It is filed as cell-based, S. aureus. Conditions: for MIC: Staphylococcus aureus, MRSA. As for the experimental part:
as §3
Colonies from BHI agar plates were suspended in saline solution (0.9% NaCl) and adjusted to an OD600 of 0.5. For growth kinetics determination, 96-well microplates (Starlab, Orsay, France) containing 200 μL of fresh BHI medium were inoculated with bacterial suspensions to an OD600 of 0.02 with a wide range of DltA inhibitors (from 0 to 2 mM). Plates were incubated at 37 °C with shaking (orbital amplitude of 3 mm) in a microplate reader (InfiniteM Nano, Tecan, Seoul, Republic of Korean). OD600nm was measured every 10 min for 24 h. Determination of MIC/MBC of antibiotics and bacterial survival assays were performed as previously described using BHI medium. The DltA inhibitor was diluted in pure water and added to the growth medium to a final concentration of 0, 0.1, 0.25, 0.5, 0.75, or 1 mM.

Test [3] addresses T2, recombinant DltA from S. epidermidis (Staphylococcus epidermidis, UniProt Q5HQN0).
T2 construct: made in house; host or cells: E. coli
T2 sequence (Q5HQN0 1-485): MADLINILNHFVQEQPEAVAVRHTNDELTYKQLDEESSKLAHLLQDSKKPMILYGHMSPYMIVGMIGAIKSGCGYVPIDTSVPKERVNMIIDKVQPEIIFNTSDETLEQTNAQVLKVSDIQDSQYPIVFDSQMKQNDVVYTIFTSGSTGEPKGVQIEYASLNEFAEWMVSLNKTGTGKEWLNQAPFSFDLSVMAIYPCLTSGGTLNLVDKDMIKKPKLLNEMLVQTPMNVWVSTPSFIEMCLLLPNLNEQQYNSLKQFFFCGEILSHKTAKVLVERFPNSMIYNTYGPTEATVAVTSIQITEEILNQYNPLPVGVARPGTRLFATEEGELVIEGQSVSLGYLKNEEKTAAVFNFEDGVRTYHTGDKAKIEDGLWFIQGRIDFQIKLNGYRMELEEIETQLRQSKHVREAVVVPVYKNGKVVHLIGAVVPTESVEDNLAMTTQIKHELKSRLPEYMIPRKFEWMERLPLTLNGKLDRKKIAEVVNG
Kind of test: DltA enzyme inhibition, PPi release coupled-enzyme assay. It counts as biochemical. As for the experimental part: as §1, §2

Where [4] appears, read: S. aureus (MRSA), in presence of 1 mM of the DltA inhibitor, read-out: MIC of IPM.
Setting [5] is: S. aureus (MRSA), in presence of 1 mM of the DltA inhibitor.

Regarding `C[C@@H](N)C(=O)Nc1c(NC[C@H]2O[C@@H](n3cnc4c(N)ncnc43)[C@H](O)[C@@H]2O)c(=O)c1=O` [Compound 23, 5′-N-(N-D-alanyl]-(3-amino-cyclobut-3-ene-1,2-dione))aminodeoxy adenosine salt], in test [1], the IC50 worked out at 28.4 µM. In addition, the “Reduction in D-Ala Ester Residues” value in test [2] is on record as 11.5 (1.3) %.

On to `C[C@@H](N)C(=O)NS(=O)(=O)OC[C@H]1O[C@@H](n2cnc3c(N)ncnc32)[C@@H](N=[N+]=[N-])[C@@H]1O` [Compound 9, ((2R,3S,4S,5R)-5-(6-amino-9H-purin-9-yl)-4-azido-3-hydroxytetrahydrofuran-2-yl)methyl (D-alanyl)sulfamate salt], for which the IC50 in test [1] came to 3.8 µM. In the test with MRSA clinical isolates (setting [4]), the MIC stood at 8 µg/mL. Further, the “Reduction in D-Ala Ester Residues” value in test [2] was 74.9% and 74.9 (9.4) %.

For `CC(C)OP(=O)(OC(C)C)C(F)(F)/C=C/CO[C@@H]1[C@H](O)[C@@H](COS(=O)(=O)NC(=O)[C@@H](C)N)O[C@H]1n1cnc2c(N)ncnc21` [Compound 18, ((2R,3R,4R,5R)-5-(6-amino-9H-purin-9-yl)-4-(((E)-4-(diisopropoxyphosphoryl)-4,4-difluorobut-2-en-1-yl)oxy)-3-hydroxytetrahydrofuran-2-yl)methyl (D-alanyl)sulfamate salt], the IC50 in test [3] is 7.6 µM. Further, the MIC in the test on MRSA clinical isolates (read-out: MIC of IPM, S. aureus (MRSA), in presence of 1 mM of the DltA inhibitor) came to 0.25 µg/mL. In addition, the “Reduction in D-Ala Ester Residues” value in test [2] is 51.5% and 51.5 (14.2) %.

With `CCCCCCC(=O)N[C@H](C)C(=O)c1cn(C[C@H]2O[C@@H](n3cnc4c(N)ncnc43)[C@H](O)[C@@H]2O)nn1` [Compound 51, N-((R)-1-(1-(((2R,3S,4R,5R)-5-(6-amino-9H-purin-9-yl)-3,4-dihydroxytetrahydrofuran-2-yl)methyl)-1H-1,2,3-triazol-4-yl)-1-oxopropan-2-yl)heptanamide salt], in test [3], the IC50 stood at 22.2 µM. Besides, in the test with MRSA clinical isolates (setting [5]), the “MIC of IPM” value is 16 µg/mL. For the same compound, the MIC in the test on MRSA clinical isolates (setting [4]) lay in the range of 16 to 64 µg/mL. In addition, the “Reduction in D-Ala Ester Residues” value in test [2] was 22.2 (5.0) %.

With `C[C@@H](NC(=O)OCc1ccc([N+](=O)[O-])cc1)C(=O)c1cn(C[C@H]2O[C@@H](n3cnc4c(N)ncnc43)[C@H](O)[C@@H]2O)nn1` [Compound 54, 4-nitrobenzyl ((R)-1-(1-(((2R,3S,4R,5R)-5-(6-amino-9H-purin-9-yl)-3,4-dihydroxytetrahydrofuran-2-yl)methyl)-1H-1,2,3-triazol-4-yl)-1-oxopropan-2-yl)carbamate salt], the 50% inhibitory concentration (IC50) in test [3] amounted to 21.9 µM. In addition, the “MIC of IPM” value in the test with MRSA clinical isolates (setting [5]) was 16 µg/mL. The MIC in the test with MRSA clinical isolates (setting [4]) lay within 16 to 64 µg/mL. In test [2], the “Reduction in D-Ala Ester Residues” value came out at 0%.

Consider `C[C@@H](O)[C@H]1C(=O)N2C(C(=O)O)=C(SCCN=CN)C[C@H]12` [IPM, imipenem, reference compound], for which the minimum inhibitory concentration (MIC) in the test on MRSA clinical isolates (tested MRSA strain, no inhibitor, read-out: MIC of IPM in the absence of an inhibitor) amounted to 32 µg/mL.

For the compound `C[C@@H](N)C(=O)NS(=O)(=O)OC[C@H]1O[C@@H](n2cnc3c(N)ncnc32)[C@H](n2cc(CO[C@@H]3O[C@H](CO)[C@@H](O)[C@H](O)[C@H]3O)nn2)[C@@H]1O` [Compound 11, ((2R,3S,4R,5R)-5-(6-amino-9H-purin-9-yl)-3-hydroxy-4-(4-((((2R,3R,4S,5S,6R)-3,4,5-trihydroxy-6-(hydroxymethyl)tetrahydro-2H-pyran-2-yl)oxy)methyl)-1H-1,2,3-triazol-1-yl)tetrahydrofuran-2-yl)methyl (D-alanyl)sulfamate salt], in test [3], the concentration for half-maximal inhibition (IC50) was 39.5 µM. Moreover, the “MIC of IPM” value in the test with MRSA clinical isolates (setting [5]) was 32 µg/mL. The MIC in the test with MRSA clinical isolates (setting [4]) fell in the range of 16 to 64 µg/mL. Also, the “Reduction in D-Ala Ester Residues” value in test [2] is 0%.

As for `C[C@@H](NC(=O)c1ccc(-c2ccccc2)cc1)C(=O)c1cn(C[C@H]2O[C@@H](n3cnc4c(N)ncnc43)[C@H](O)[C@@H]2O)nn1` [Compound 52, N-((R)-1-(1-(((2R,3S,4R,5R)-5-(6-amino-9H-purin-9-yl)-3,4-dihydroxytetrahydrofuran-2-yl)methyl)-1H-1,2,3-triazol-4-yl)-1-oxopropan-2-yl)-[1,1′-biphenyl]-4-carboxamide salt], the IC50 in test [3] amounted to 12.4 µM. In addition, the MIC in the test with MRSA clinical isolates (setting [4]) came out at 8 µg/mL. In addition, in test [2], the “Reduction in D-Ala Ester Residues” value was 16% and 16.0 (4.2) %.

For the compound `CCCCCCOc1ccc(C(=O)N[C@H](C)C(=O)c2cn(C[C@H]3O[C@@H](n4cnc5c(N)ncnc54)[C@H](O)[C@@H]3O)nn2)cc1` [Compound 53, N-((R)-1-(1-(((2R,3S,4R,5R)-5-(6-amino-9H-purin-9-yl)-3,4-dihydroxytetrahydrofuran-2-yl)methyl)-1H-1,2,3-triazol-4-yl)-1-oxopropan-2-yl)-4-(hexyloxy)benzamide salt], the IC50 in test [3] turned out to be 16 µM. Moreover, the “MIC of IPM” value in the test with MRSA clinical isolates (setting [5]) is 16 µg/mL. In addition, the MIC in the test on MRSA clinical isolates (setting [4]) was 16 to 64 µg/mL. For the same compound, the “Reduction in D-Ala Ester Residues” value in test [2] is given as 12.5 (14.0) %.

Regarding `C[C@@H](N)C(=O)NS(=O)(=O)NC/C(CF)=C(\F)Cn1cnc2c(N)ncnc21` [Compound 38, (R,E)-2-amino-N-(N-(4-(6-amino-9H-purin-9-yl)-3-fluoro-2-(fluoromethyl)but-2-en-1-yl)sulfamoyl)propenamide salt], the IC50 in test [3] was more than 100 µM; in test [3] (Dlt from S. epidermidis, PPi release, value (spread)), “complete loss of the activity”. For the same compound, the “MIC of IPM” value in the test on MRSA clinical isolates (setting [5]) is 32 µg/mL. For the same compound, the MIC in the test with MRSA clinical isolates (setting [4]) fell in the range of 16 to 64 µg/mL. Further, the “Reduction in D-Ala Ester Residues” value in test [2] was 2%.

A word on the IC50: it is the concentration that gives 50% inhibition. A word on the MIC: it is the lowest concentration found to suppress growth.
